Assay results from EP3708171A1, “TREATMENT OF VITAMIN D DEFICIENCY WITH 25(OH) VITAMIN D IN CRITICALLY ILL PATIENTS” (Bouillon, Roger, priority 2019, dated 2020).

How the values were obtained:
[1] = normal subjects; cited from earlier work
[2] = Further trial of IV 25OHD with higher replacement dose in critically ill patients (Example 2); assay type: in vivo; settings: IV loading dose, then 25 µg 25OHD per day for 10 days
Experimental: The study design and materials are similar to the one described in Example 1, the difference being that the patients are administered higher bolus and daily replacement doses of 25OHD for at least two days after the bolus administration and preferably during the hospital stay of such patients .
The study is performed in accordance with the 1964 Declaration of Helsinki and its later amendments. Patients with an anticipated stay in the intensive care unit (ICU) of more than 10 days are considered eligible for inclusion in the study. […]
The effect of IV 25OHD supplementation on vitamin D status (25OHD) is studied. […] All patients are followed up and monitored for possible adverse events beyond the intervention period of 10 days until discharge or death. […]
Every day at 06.00 a.m., from ICU admission until ICU discharge or death, undiluted blood samples are taken through an arterial line that is present for clinical purposes. […] Concentrations of 25OHD are measured in serum.
StatView 5.0.1 (SAS Institute Inc., Cary, NC) and JMP13 (SAS) is used for the statistical analyses. […] Variables with a normal distribution are analyzed with Student's t-test, variables with a non-normal distribution with Mann-Whitney U, and proportions with the chi-square test. […]

[3] = Randomized, placebo-controlled pilot study of IV 25OHD supplementation in critically ill (ICU) patients; serum vitamin D metabolites and DBP (Example 1); assay type: in vivo
Experimental: The study was performed in accordance with the 1964 Declaration of Helsinki and its later amendments. The protocol and consent forms were approved by the institutional review board of the University Hospitals Leuven (ML2462). The study was registered at www.controlled-trials.com (ISRCTN24385496). Patients with an anticipated stay in the intensive care unit (ICU) of more than 10 days were eligible for inclusion in the study. Patients younger than 18 years, those suffering from chronic bone or kidney disease, and those who were treated with glucocorticoids before ICU admission were excluded. Patients were compared with healthy controls matched for age, gender and body mass index, of whom blood was sampled during summer time.
Upon ICU admission, patients were randomly allocated to either a daily IV injection of placebo (NaCl 0.9%) or to an IV loading dose of 200 µg 25OHD, followed by an IV replacement dose of 15 µg 25OHD per day, from ICU admission onward and continued for 10 days. Patients from both groups also received the usual vitamin D supplement, which consisted of a daily intravenous cholecalciferol supplement of +/-200 IU (5 µg, as part of 10 ml of Cernevit® (Clinitec-Baxter, Brussels, Belgium). 25OHD was obtained from Solvay Pharmaceuticals (Brussels, Belgium) and dissolved in ethanol by the hospital pharmacy under laminar flow conditions in glass vials, containing 200 µg/ml per vial for the loading dose and 15 µg/ml per vial for the replacement dose. A purity control was performed on the prepared samples using HPLC. Similarly, placebo vials were also prepared by the hospital pharmacy (1 ml NaCl 0.9% per vial). All vials were blinded by the hospital pharmacy.
The effect of IV 25OHD supplementation on vitamin D status (25OHD, 1,25(OH)2D, 24,25(OH)2D) was studied. Clinical outcome parameters (organ dysfunction (sequential organ failure assessment (SOFA) score, days on mechanical ventilation, need for renal replacement therapy), prolonged (>3 days) antibiotic therapy, ICU length of stay and mortality) were registered as safety endpoints. All patients were followed up and monitored for possible adverse events beyond the intervention period of 10 days until discharge or death. Analysts and investigators were blinded for treatment allocation.
Every day at 06.00 a.m., from ICU admission until ICU discharge or death, undiluted blood samples were taken through an arterial line that had been placed for clinical purposes. Serum and plasma samples were frozen and subsequently stored at -20°C until assay. Concentrations of 25OHD, 1,25(OH)2D, and 24,25(OH)2D were measured in serum.
25OHD was measured by competitive binding assay; 1,25(OH)2D by radioimmunoassay (RIA), and DBP by radial immunodiffusion, as previously reported by Bouillon et al (J Clin Invest 1981 67 589-596). A subset of the original 25OHD measurements were subsequently validated by re-analyses using LC-MS/MS, currently considered the gold standard. To this end, 58 samples from patients (treated with 25OHD or placebo) and controls were selected at random covering the full range of 25OHD serum concentrations (3.7-70.7 ng/ml). Briefly, serum proteins were precipitated using zinc sulphate solution, spiked with d6-25OHD3 as internal standard. After mixing and centrifugation, the supernatant was transferred to the liquid chromatography autosampler. We used a ScieX 5500 QTRAP mass spectrometer connected with a Shimadzu chromatographic system. The method consisted of an online clean-up step using a Strata C8 extraction cartridge. After loading and cleaning, the analytes were eluted by back-flushing. A Kinetex F5 column was used as analytical column. Atmospheric-pressure chemical ionization (APCI) positive mode was used. Mass transitions of 383>211, 295>211 and 389>211 were used for 25OHD3, 25OHD2 and the internal standard, respectively. Within-run and between-run CVs at clinically relevant concentrations varied between 6.3-7.4% and 6.9-8.8% respectively. […]

[4] = cited from earlier work
[5] = daily administration of 15 µg 25(OH)D (Ingels et al. 2010)

Structure (SMILES)	increase of serum 25OHD per daily dose of 1 ug of 25OHD [1] [ng/mL]	safety endpoints (clinical outcome parameters) [2]	25OHD serum concentration as compared with placebo ([3]; 10-day period, IV replacement dose 15 µg 25OHD per day)	concentrations of 1,25(OH)2D ([3]; IV 200 µg loading dose, then 15 µg/day for 10 days)	increase in serum 25OHD after bolus ([3]; IV loading dose of 200 µg 25OHD) [ng/mL]	increase of 25OHD levels ([3]; daily supplement of 15 µg of 25OHD)	25OHD serum concentrations ([3]; following the intravenous loading dose of 200 µg 25OHD, 20 ng/ml target)	increase of 25OHD levels in the subgroup receiving the active treatment ([3]; from 9.2 ng/ml baseline) [ng/mL]	catabolism of 25OHD in ICU patients versus normal subjects of the same age ([3]; human, in vivo)	Vd ([3]; human, in vivo, iv) [L]	level of 1,25(OH)2D3 [4, 5]	serum levels of 25OHD [4, 5]	outcome of critically ill patients ([4]; oral, high dose, except subgroup with baseline severe vitamin D deficiency (lower hospital mortality))
C=C1CC[C@H](O)C/C1=C/C=C1\CCC[C@]2(C)[C@@H]([C@H](C)CCCC(C)(C)O)CC[C@@H]12 [25OHD, 25-hydroxyvitamin D]	1.2	positive effects	remained elevated throughout the 10-day period	only transiently increased	11	about 8 ng/ml	instantly rose but did not reach the 20 ng/ml target	6.8	at least 3 fold	~18	only a transient increase	increased the serum levels of 25OHD	–
C=C1CC[C@H](O)C/C1=C/C=C1\CCC[C@]2(C)[C@@H]([C@H](C)CCCC(C)C)CC[C@@H]12 [vitamin D3]	–	–	–	–	–	–	–	–	–	–	–	–	did not affect outcome
